We go through three compounds from patent US20080182830A1, “Agent for Treatment and Prevention of Endometriosis and Uterine Adenomyosis” (priority 2005, published 2008).

Structures are written as SMILES.

Test [1] deals with uterine adenomyosis. Description: Therapy of uterine adenomyosis (1), single patient. Format: in vivo, human. The source says: A patient having uterine adenomyosis was subjected to the treatment using the therapeutic agent according to the present invention. The patient had been subjected to injection of Leuplin, which was a therapeutic drug for endometriosis at one time per a month continuously for six months. However, the disease was not cured. Then, the uterus was enlarged to have a size corresponding to the third month of pregnancy, and menstrual pain was severe, and a menstrual bleeding was abundant. Moreover, CA125 in the blood indicated 441 units (the normal units are 35 units or less) and CA602 indicated 1025 units (the normal value is 63 units or less). The indicated values were abnormally high.
The menstrual pain and the hypermenorrhea disappeared. Moreover, CA125 in the blood was reduced to be 38 units and CA602 was reduced to 53 units after 60 days from the initiation of the administration. Accordingly, it can be said that the uterine adenomyosis was fully cured.

Test [2] relates to uterine adenomyosis. Description: Therapy of uterine adenomyosis (2), patient series with intrauterine devices. It is filed as in vivo, human. The method, then: An intrauterine device (IUD) containing 600 μg to 900 μg of 3-ethylpyridine was inserted for 6 months […] of each of patients (12 cases) having uterine adenomyosis recurring after the nasal administration or injection of GnRH analogs.

Test [3] deals with chorioallantoic membrane of chicken. As to conditions: Lin J. et al. 2002; G. Melkonian et al. 2004; cited from earlier work.
A further test has as its system vaginal endometriosis. Description: Therapy of vaginal endometriosis, vaginal ring. It is filed as in vivo, human. As for the experimental part:
A patient having endometriosis recurred after operation of the left ovary and Cul-de-Sac endometriosis was subjected to the treatment using the therapeutic agent according to the present invention. In the patient with an induration about 7 cm×about 5 cm in a deep right posterior fornix of the vagina. […] Moreover, menstrual pain, extramenstrual pain, severe lower abdominal pain, defecation pain, and coital pain were recognized. Accordingly, the above-described doughnut-type ring containing 9 mg 3-ethylpyridine was inserted into the posterior vaginal fornix. As a result, four weeks after the insertion, the coital pain, the defecation pain, the extramenstrual lower abdominal pain and low back pain disappeared, and the menstrual pain was reduced. The induration at the right posterior fornix of the vagina was scaled down to 4 cm×2 cm. Then, by continuous treatment, the induration at the right posterior fornix of the vagina was further scaled down to have 2 cm×1 cm. In addition to the above case, with respect to each of patients of other two cases having endometriosis, the pathological endometriosis was confirmed by biopsy and then, a vaginal ring containing 8 to 10 mg of 3-ethylpyridine was inserted into the vagina.

Test [4] relates to deep endometriosis. Description: Therapy of deep endometriosis (1), single patient, vaginal rings. It is filed as in vivo, human. The source says: A patient suffered from intensive menstrual pain by deep endometriosis was subjected to the treatment using the therapeutic agent according to the present invention.
The test system of test [5] is deep endometriosis. Description: Therapy of deep endometriosis (2), 18 cases, vaginal ring. It is filed as in vivo, human. The method, then:
A vaginal ring containing 8 to 10 mg of 3-ethylpyridine was inserted into the vagina of each of deep endometriosis patients (18 cases) for 3 months. As a result, disappearance of pressure pain and induration in Cul-de-Sac was recognized in 9 cases, and improvement thereof was recognized in 7 cases, and nullity thereof was recognized in 2 cases. The menstrual pain disappeared in 4 cases, and improved in 13 cases and null in only one case. A coital pain disappeared in 10 cases and a defecation pain was improved in 7 cases.

In a further test the test system is ovarian chocolate cyst. Description: Therapy of ovarian chocolate cyst, injection into aspirated cyst. Format: in vivo, human. The source says: A patient having ovarian chocolate cyst was subjected to the treatment using the therapeutic agent according to the present invention. In this patient, by transvaginal ultrasonic diagnosis, the cyst having a diameter of 6 cm was recognized in Cul-de-Sac. Moreover, CA125 in the blood indicated 1522 units and CA602 indicated 352 units (the normal value is 63 units or less). The indicated values were abnormally high. It was confirmed that the distance from the vaginal fornix to cyst was within 1 cm, and under observation with a transvaginal ultrasonography, the cyst content was punctured with a needle from the posterior vaginal fornix and was aspirated. Then, the 2 mL ethanol solution containing 2 mg of 3-ethyl pyridine was injected. As a result, the ovarian chocolate cyst disappeared four weeks after the injection. The uterus was scaled down to 2.5 cm. The menstrual pain disappeared. Moreover, CA125 in the blood was lowered to be 52 units and CA602 was lowered to be 61 units.
In addition to the above case, patients of other 12 cases having chocolate cysts were subjected to the following treatment. That is, under a transvaginal ultrasonic guide, the ovarian chocolate cyst having a distance within 10 mm from the posterior vaginal fornix was punctured and the cyst content was aspirated and then the 3 mL ethyl ether solution containing 3 mg of 3-ethylpyridine was injected into the cyst. As a result, in all 12 cases, the ovarian chocolate cyst was scaled down, and at the same time, the menstrual pain disappeared in eight cases, and, improved in three cases. […] In addition, existence of malignant cells in the aspirated cystic content was denied by cytodiagnosis.

[6] abbreviates: IUD-type device containing 825 μg.
Where [7] appears, read: IUD-type device containing 825 μg inserted into the uterus.
The mark [8] stands for this setting: IUD containing 600 μg to 900 μg, 6 months, 12 cases.
The mark [9] stands for this setting: doughnut-type ring 9 mg, four weeks after insertion.
Setting [10] is: other two cases, vaginal ring containing 8 to 10 mg.
The mark [11] stands for this setting: vaginal ring 10 mg 3-ethylpyridine, after the danazol ring.
[12] abbreviates: vaginal ring 8 to 10 mg for 3 months.
[13] abbreviates: other 12 cases, 3 mL ethyl ether solution containing 3 mg.
Where [14] appears, read: single patient, 2 mL ethanol solution containing 2 mg injected.
The mark [15] stands for this setting: vaginal ring 1,000 mg danazol for 6 months.

Regarding `CCc1cccnc1` [3-ethylpyridine], the “CA125 in the blood” value in the test on uterine adenomyosis [1] (IUD-type device 825 μg, after 60 days from initiation, before 441 units, normal 35 units or less) came to 38 units. In addition, the “CA602 in the blood” value in the test with uterine adenomyosis [1] (IUD-type device 825 μg, after 60 days from initiation, before 1025 units, normal 63 units or less) was determined as 53 units. In addition, in the test with uterine adenomyosis [1] (setting [6]), the “recurrence after suspension of the treatment” value is reported as “not recognized” and the uterine adenomyosis outcome is listed as “fully cured”. Moreover, in the test on uterine adenomyosis [1] (setting [7]), the hypermenorrhea result is given as “disappeared” and the menstrual pain entry is “disappeared”. Further, the “size of the uterine corpus” value in the test on uterine adenomyosis [1] (IUD-type device containing 825 μg inserted into the uterus, six months after insertion, before: size of third month of pregnancy) is recorded as “scaled down to a normal size”. Besides, in the test on uterine adenomyosis [2] (setting [8]), the menstrual pain disappeared result was “eight”; the menstrual pain improved result is listed as “four”; the therapeutic effect result is “in all the cases, therapeutic effect was recognized”. Also, the hypermenorrhea disappeared result in the test on uterine adenomyosis [2] (IUD containing 600 μg to 900 μg, 6 months, 12 cases recurring after GnRH analogs) is “nine”. Further, the “growth of chorioallantoic membrane of chicken” value in test [3] is reported as “inhibits the growth”. In the test on vaginal endometriosis (setting [9]), the defecation pain result is “disappeared”; the “extramenstrual lower abdominal pain and low back pain” value is “disappeared”; the menstrual pain entry was “reduced”. Also, in the test with vaginal endometriosis (setting [10]), the “menstrual pain and defecation pain” value was “disappeared in all the cases”; the vaginal endometriosis result is “disappeared macroscopically and histologically in all two cases”. In the test on vaginal endometriosis (patient, doughnut-type ring containing 9 mg in posterior vaginal fornix, four weeks after insertion), the coital pain result is “disappeared”. Moreover, in the test with deep endometriosis [4] (setting [11]), the “induration in Cul-de-Sac” value is given as “not scaled down” and the menstrual pain entry was “further decreased”. Further, the “CA125 in the blood” value in the test with deep endometriosis [4] (vaginal ring containing 10 mg 3-ethylpyridine, after the danazol ring, in 3 months, from 620 units) was found to be 250 units. Further, in the test on deep endometriosis [5] (setting [12]), the coital pain disappeared stood at 10 cases; the defecation pain improved was determined as 7 cases; the “improvement of pressure pain and induration in Cul-de-Sac” value is reported as 7 cases; the menstrual pain disappeared is listed as 4 cases. In the test with deep endometriosis [5] (setting [12]), the menstrual pain improved was 13 cases; the menstrual pain null entry is “one”; the “nullity (no effect) on pressure pain and induration in Cul-de-Sac” value came out at 2 cases. Also, the “disappearance of pressure pain and induration in Cul-de-Sac” value in the test on deep endometriosis [5] (vaginal ring containing 8 to 10 mg for 3 months) was found to be 9 cases. For the same compound, in the test on ovarian chocolate cyst (setting [13]), the “cyst enlarged again after the six months” value is given as “three”, the menstrual pain disappeared result is “eight” and the menstrual pain improved result is given as “three”. The “ovarian chocolate cyst scaled down” value with ovarian chocolate cyst (other 12 cases, 3 mL ethyl ether solution containing 3 mg injected into the cyst) is 12 cases. Besides, in the test with ovarian chocolate cyst (single patient, 2 mg injected, before 352 units, normal 63 units or less), the “CA602 in the blood” value was determined as 61 units. The “CA125 in the blood” value in the test on ovarian chocolate cyst (single patient, 2 mg injected, before 1522 units) was 52 units. In the test on ovarian chocolate cyst (setting [14]), the menstrual pain result is recorded as “disappeared” and the “uterus scaled down to” value was 2.5 cm. Moreover, in the test on ovarian chocolate cyst (single patient, 2 mL ethanol solution containing 2 mg injected after aspiration, four weeks after injection, cyst diameter 6 cm before), the ovarian chocolate cyst result was “disappeared”. Further, the “ovary chocolate cyst outcome after repeated puncture and injection” value in the test on ovarian chocolate cyst (the three cases enlarged again after six months) was “could be cured”.

Take `CCNC(=O)[C@@H]1CCCN1C(=O)[C@H](CCCNC(=N)N)NC(=O)[C@H](CC(C)C)NC(=O)[C@@H](CC(C)C)NC(=O)[C@H](Cc1ccc(O)cc1)NC(=O)[C@H](CO)NC(=O)[C@H](Cc1c[nH]c2ccccc12)NC(=O)[C@H](Cc1c[nH]cn1)NC(=O)[C@@H]1CCC(=O)N1` [Leuplin, reference compound]: the “disease (uterine adenomyosis) outcome” value in the test on uterine adenomyosis [1] (patient, injection one time per month continuously for six months) is “not cured”.

On to `C#C[C@]1(O)CC[C@H]2[C@@H]3CCC4=Cc5oncc5C[C@]4(C)[C@H]3CC[C@@]21C` [danazol, reference compound], for which, in the test with uterine adenomyosis [2] (earlier treatment with IUDs containing danazol, the 55 cases), the uterine adenomyosis outcome is reported as “not cured”. Moreover, the “CA125 in the blood” value with deep endometriosis [4] (patient, vaginal ring containing 1,000 mg danazol for 6 months, from 950 units) is listed as 620 units. In addition, in the test with deep endometriosis [4] (setting [15]), the menstrual pain entry is recorded as “reduced but not fully cured” and the “painful induration in Cul-de-Sac” value is “not scaled down”.
